Data reported in patent US20040229268A1, “Method and kit for identifying antibiotic-resistant microorganisms” (priority 2003, published 2004).

What was measured:
Format in all cases: binding, S. aureus
[1] = test system: mecA gene; rRNA (pan-bacterial probe); assay: Hybridization Protection Assay (HPA), AE-labeled probes, thermally lysed specimens (Examples 1-2)
Experimental: The specimens were lysed by suspending approximately 5×10^8 cells in a lysis buffer (0.1% lithium lauryl sulfate, 1 mM EDTA, 20 mM lithium succinate, pH 5.5) and then incubating in a heat block set at 110° C. for 20 minutes. Thermal lysis of a variety of other specimens was effected under a range of temperature (heat block set at about 95° C. to 110° C.) and time (about 10 to 25 minutes) conditions. The lysed samples were tested for the presence of target sequences complementary to the probes using a Hybridization Protection Assay (HPA) as described by Arnold et al., in Clin. Chem. 35:1588(1989) and U.S. Pat. No. 6,004,745. 50 μl of the heat-treated suspension was incubated with an equal volume of AE-labeled probe in 2× hybridization buffer (1.2 M LiCl, 2% lithium lauryl sulfate, 20 mM EDTA, 20 mM EGTA, 100 mM lithium succinate, pH 5.5) at 60° C. for 30 minutes. The pH of succinate solutions may range from about 4.5 to about 5.5, although it is desirable to use a pH of 4.8 for succinate buffering. 300 μl of a selection reagent (0.6 M borate buffered solution, pH 8.5; note, pH may vary from 8.0 to 9.0) was added, the mixture was heated at 60° C. for 10 minutes to effect differential hydrolysis, and the samples were read in a GEN-PROBE® LEADER® luminometer using sequential 300 μl injections of 0.1% H2O2 and 1 N NaOH solutions (see Arnold et al, supra; GEN-PROBE® Detection Reagent Kit, Cat. No. 1791 may be used).
Procedures similar to those described in Example 1 were conducted using a large number of bacterial samples, except that parallel hybridization reactions employed a pan-bacterial probe which targeted rRNA (Probe Reagent 1, GEN-PROBE® MTC-NI Kit, catalog no. 4573). […] The pan-bacterial probe reagent served as a positive control for lysis of all of the specimens. In this procedure each sample was tested against a panel of the three probes contained in separate hybridization reactions. Aliquots of the samples tested using the pan-bacterial probe reagent were diluted 1:3000 prior to performing luminometry so that results fell within the linear range of the detector. The signals indicated lysis and detection of ribosomal nucleic acids in each of the samples. These values depended on the number of bacterial cells in the specimen, as well as on the extent of cell lysis and the release or accessibility of ribosomal nucleic acids from the cells to be detected by the pan-bacterial probe.

[2] = test system: mecA gene; Staphylococcus ribosomal nucleic acids; assay: HPA after thermal lysis, base hydrolysis and neutralization (Examples 5-7)
[3] = test system: mecA gene; ribosomal nucleic acids; assay: HPA, base treatment with and without thermal lysis (Example 4)
Experimental: The effect of base treatment with and without the heat treatment in lysis buffer was evaluated using a S. aureus specimen (GP1217, ATCC #33591). In this procedure the sample was treated with 0.8 N LiOH and thermal lysis was conducted by heat treatment for 15 minutes. Other conditions were as described above. Probe 1 labeled with acridinium ester was used in this procedure.

[4] = Table 7, lysis 15 minutes, hybridization 45 minutes
[5] = Table 8, lysis 15 minutes, hybridization 45 minutes
[6] = Table 9, lysis 10 minutes, hybridization 20 minutes
[7] = Table 10, neutralize 100 μl 2 N HCl containing 200 mM succinate, hybridize 45 minutes at 60° C.

With “GGTATGTGGAAGTTAGATTGGGATCATAGCG (AE label, linker between 13 and 14, chemistry not fully specified; listed as Staphylococcus aureus) [Probe 1]” the “AE-probe Average RLU” value ([1]; No Specimen) was 431 RLU, the “AE-probe Average RLU” value ([1]; S. aureus specimen #99, mecA PCR Pos) was 2664 RLU and the “AE-probe Average RLU” value ([1]; S. aureus specimen #100, mecA PCR Neg) was 590 RLU. The “AE-Probe Signal (RLU)” value ([1]; Table 2, Negative Control) was 1817 RLU, the “AE-Probe Signal (RLU)” value ([1]; Table 2, specimen 10, mecA PCR Neg, pan-bacterial diluted 1:3000 prior to luminometry) was 2918 RLU and the “AE-Probe Signal (RLU)” value ([1]; Table 2, specimen 99, mecA PCR Pos, pan-bacterial diluted 1:3000 prior to luminometry) was 5822 RLU. The “AE-Probe Signal (RLU)” value ([1]; Table 2, specimen 100, mecA PCR Neg, pan-bacterial diluted 1:3000 prior to luminometry) was 815 RLU, the “AE-Probe Signal (RLU)” value ([1]; Table 2, specimen 101, mecA PCR Neg, pan-bacterial diluted 1:3000 prior to luminometry) was 2768 RLU and the “AE-Probe Signal (RLU)” value ([1]; Table 2, specimen 102, mecA PCR Pos, pan-bacterial diluted 1:3000 prior to luminometry) was 5623 RLU. For the same sequence, the “AE-Probe Signal (RLU)” value ([1]; Table 2, specimen 103, mecA PCR Neg, pan-bacterial diluted 1:3000 prior to luminometry) was 1097 RLU, the “AE-Probe Signal (RLU)” value ([1]; Table 2, specimen 104, mecA PCR Neg, pan-bacterial diluted 1:3000 prior to luminometry) was 959 RLU and the “AE-Probe Signal (RLU)” value ([1]; Table 2, specimen 105, mecA PCR Neg, pan-bacterial diluted 1:3000 prior to luminometry) was 1086 RLU. For the same sequence, the “AE-Probe Signal (RLU)” value ([1]; Table 2, specimen 106, mecA PCR Neg, pan-bacterial diluted 1:3000 prior to luminometry) was 1327 RLU, the “AE-Probe Signal (RLU)” value ([1]; Table 2, specimen 139, mecA PCR Pos, pan-bacterial diluted 1:3000 prior to luminometry) was 5755 RLU and the “AE-Probe Signal (RLU)” value ([1]; Table 2, specimen 140, mecA PCR Pos, pan-bacterial diluted 1:3000 prior to luminometry) was 3143 RLU. For the same sequence, the “AE-Probe Signal (RLU)” value ([1]; Table 2, specimen 142, mecA PCR Pos, pan-bacterial diluted 1:3000 prior to luminometry) was 6845 RLU, the “AE-Probe Signal (RLU)” value ([1]; Table 2, specimen 145, mecA PCR Neg, pan-bacterial diluted 1:3000 prior to luminometry) was 997 RLU and the “AE-Probe Signal (RLU)” value ([1]; Table 2, specimen 148, mecA PCR Pos, pan-bacterial diluted 1:3000 prior to luminometry) was 10483 RLU. The “AE-Probe Signal (RLU)” value ([1]; Table 2, specimen 155, mecA PCR Neg, pan-bacterial diluted 1:3000 prior to luminometry) was 730 RLU, the “AE-Probe Signal (RLU)” value ([1]; Table 2, specimen 164, mecA PCR Neg, pan-bacterial diluted 1:3000 prior to luminometry) was 1546 RLU and the “AE-Probe Signal (RLU)” value ([1]; Table 2, specimen 178, mecA PCR Pos, pan-bacterial diluted 1:3000 prior to luminometry) was 7772 RLU. The “AE-Probe Signal (RLU)” value ([1]; Table 2, specimen 188, mecA PCR Pos, pan-bacterial diluted 1:3000 prior to luminometry) was 11856 RLU, the “AE-Probe Signal (RLU)” value ([1]; Table 2, specimen 270, mecA PCR Pos, pan-bacterial diluted 1:3000 prior to luminometry) was 9256 RLU and the “AE-Probe Signal (RLU)” value ([1]; Table 2, specimen 296, mecA PCR Pos, Lab Pos control, pan-bacterial diluted 1:3000 prior to luminometry) was 5567 RLU. For the same sequence, the RLU ([2]; Table 6, GP18(Neg), MSSA ATCC #12600) was 821 RLU, the RLU ([2]; Table 6, GP1214(Neg), MSSA ATCC #29247) was 848 RLU and the RLU ([2]; Table 6, GP1217(Pos), MRSA ATCC #33591) was 53,322 RLU. For the same sequence, the RLU ([2]; Table 6, GP1218(Pos), MRSA ATCC #43866) was 36,730 RLU, the “GP18(Neg) RLU” value [2, 4] was 757 RLU and the “GP1217(Pos) RLU” value [2, 4] was 25928 RLU. The “Probe alone Avg RLU” value [2, 4] was 3668 RLU, the “GP18(Neg) RLU” value [2, 5] was 879 RLU and the “GP1217(Pos) RLU” value [2, 5] was 11485 RLU. For the same sequence, the “Probe alone Avg RLU” value [2, 5] was 1123 RLU, the “GP1217(Pos) RLU” value [2, 6] was 27256 RLU and the “Probe alone Avg RLU” value [2, 6] was 2476 RLU. The “GP1214(Neg) RLU” value [2, 7] was 1844 RLU, the “GP1217(Pos) RLU” value [2, 7] was 37695 RLU and the “Probe alone Avg RLU” value [2, 7] was 2131 RLU. For the same sequence, the RLU ([3]; GP1217, Base treatment 30 minutes at 60° C.) was 16016 RLU, the RLU ([3]; GP1217, Thermal lysis 15 minutes at 100° C. + Base treatment 15 minutes at 60° C.) was 38017 RLU and the RLU ([3]; Table 5, Negative Control) was 592 RLU.
